Data: patent publication US6359129B1, “Amino acid-derived, 7-membered cyclic sulfamides and methods of synthesizing the same” (University of Kansas, priority 2000, dated 2002)

Legend:
Type in all cases: biochemical
[1] = molecular target: Herpes Simplex Virus Protease (Human herpesvirus 1, UniProt P10210); test: Inhibition of Herpes Simplex Virus Protease; settings: compound tested at 200 μmolar
Experimental: The inhibition of Herpes Simplex Virus Protease by the compound shown in Scheme R was determined according to the procedure described by Waxman et al., Antiviral Chemistry and Chemotherapy, 11:1-22 (1999); Qiu et al., Proteases of Infectious Agents, Academic Press, 93-115 (1999); and U.S. Pat. No. 6,008,033, each incorporated by reference herein.
The compound was tested at a concentration of 200 μmolar. [drawing 25]

[2] = molecular target: T1, HIV protease (Human immunodeficiency virus type 1 group M subtype B, UniProt P04585); test: Inhibition of HIV protease; settings: compound at 99 μmolar
T1 construct: a key virally encoded protease enzyme of the pol gene
Experimental: The inhibition of HIV protease by the compounds shown in Scheme S (99 μmolar), Scheme T (99 μmolar), and Scheme U (99 μmolar) was determined following the procedure described by Maschera et al., Human Immunodeficiency Virus: Mutations in the Viral Protease that Confer Resistance to Saquinavir Increase the Dissociation Rate Constant for the Protease-Saquinavir Complex, J. Biol. Chem., 271:33231-35 (1996), incorporated by reference herein. [drawing 26] [drawing 27] [drawing 28]

[3] = molecular target: T2, human cathepsin K (Homo sapiens, UniProt P43235); test: Inhibition of human cathepsin K (fluorogenic peptide assay); settings: compound at 106 μmolar; pH 5.5, 10 μmolar peptide, 32° C.
T2 sequence (P43235 115-329): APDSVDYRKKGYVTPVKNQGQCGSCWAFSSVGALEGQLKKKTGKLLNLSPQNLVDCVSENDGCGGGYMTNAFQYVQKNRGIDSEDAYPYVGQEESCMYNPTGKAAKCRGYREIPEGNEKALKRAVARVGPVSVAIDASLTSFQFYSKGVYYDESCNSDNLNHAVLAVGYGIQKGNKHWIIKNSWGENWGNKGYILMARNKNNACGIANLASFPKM
Experimental: The inhibition of human cathepsin K by the compounds shown in Schemes V (106 μmolar) and W (106 μmolar) was determined. [drawing 29] [drawing 30]
The peptides utilized were chromophoric Z-Phe-Arg-pNA*HCl and fluorogenic Z-Phe-Arg-AMC (each available from BACHEM Bioscience, Inc.). Stock solutions were prepared with 100% dimethylsulfoxide (DMSO) and stored at −20° C.
The final assay conditions were 100 mM NaOAc, pH of 5.5, 10 mM (R,R)-dithiothreitol (DTT), 10% DMSO, 120 mM NaCl, 10 μmolar of the peptide, and 12.5-0.012 μmolar inhibitor in twofold serial dilutions from 20× stocks in 100% DMSO. The enzyme working solution was a 1:3000 dilution of […] human cathepsin K into 100 mM of NaOAc, pH of 5.5, 10 mM DTT, 1.2 M NaCl.
Serial dilutions were performed in 100% DMSO. Columns 2-12 of an intermediate plate were filled with […] of 100% DMSO and column 1 was filled with […]. Next, […] of a 10 mM solution was added to column 1. […] The fluorescence was monitored every 6 minutes for 72 minutes using a CytoFluor Series 4000 PerSeptive Biosystems multi-well fluorescence plate reader with the following settings: gain=50; 20 reads/well; 32° C.; lex=360±20 nm; and lem=440±20 nm.

Chain of Herpes Simplex Virus Protease (P10210 1-247): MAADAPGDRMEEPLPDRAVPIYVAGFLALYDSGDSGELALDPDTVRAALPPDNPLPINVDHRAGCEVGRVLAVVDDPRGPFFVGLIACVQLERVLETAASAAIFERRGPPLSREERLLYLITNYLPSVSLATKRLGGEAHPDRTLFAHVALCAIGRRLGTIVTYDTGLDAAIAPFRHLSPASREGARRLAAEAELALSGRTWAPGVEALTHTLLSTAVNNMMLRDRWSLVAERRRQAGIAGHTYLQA

Row | Structure (SMILES) | inhibition at 99 µM [2] [%] | inhibition at 106 µM [3] [%] | further results
1 | COC(=O)C(Cc1ccccc1)N1CC(O)C(O)CN(Cc2ccccc2)S1(=O)=O (stereo not drawn) [Scheme R] | – | – | inhibition at 200 µM [1]: 20.5%
2 | CC(C)CC(COCc1ccccc1)N1CC=CCN(C(COCc2ccccc2)CC(C)C)S1(=O)=O (stereo not drawn) [Scheme S] | 96 | – | –
3 | COC(=O)C(Cc1ccccc1)N1CC(O)C(O)CN(C(Cc2ccccc2)C(=O)OC)S1(=O)=O (stereo not drawn) [Scheme T] | 22 | – | –
4 | COC(=O)C(Cc1ccccc1)N1CC(O)C(O)CN(Cc2ccccc2)S1(=O)=O (stereo not drawn) [Scheme U] | 21 | – | –
5 | CC(C)CC(COCc1ccccc1)N1CC=CCN(C(COCc2ccccc2)CC(C)C)S1(=O)=O (stereo not drawn) [Scheme V] | – | 20 | –
6 | CC(C)CC(C(=O)NO)N1CC=CCN(C(CC(C)C)C(=O)NO)S1(=O)=O (stereo not drawn) [Scheme W] | – | 14 | –
